US10245252B2, “Use of alkylamidothiazoles in cosmetic or dermatological preparations for the prophylaxis or treatment of sensitive skin” (BEIERSDORF AG, priority 2013, dated 2019)

Assays:
Type in all cases: cell-based
NFκB = NFκB activity assay (commercial assay from Cell Culture Service GmbH), NFκB activated by TNF-alpha; details: NFκB activated by adding TNF-alpha; FIG. 1; very low concentrations
Source text: The nuclear factor kappa B (NFκB) is a master regulator of inflammation. The expression of many pro-inflammatory mediators (e.g. cytokines and chemokines) is controlled by NFκB. The inhibition of the activation of NFκB is therefore an important mechanism for minimizing inflammation processes. To measure the NFκB activity, a commercial assay from Cell Culture Service GmbH, Hamburg, was used. In this test, NFκB is activated by adding the pro-inflammatory mediator TNF-alpha. The addition of the alkylamidothiazoles according to the invention prevents the TNF-alpha effect in a dose-dependent manner.

human dermal fibroblasts = assay: LPS-induced prostaglandin E2 formation in human dermal fibroblasts, ELISA of cell culture supernatant; details: incubation for 24 hours with LPS and increasing concentrations, FIG. 2, compared with diclofenac
Description: (§1) In further experiments it was investigated whether the inhibition of the NFκB activation also actually reduces the subsequent secretion of pro-inflammatory mediators. By way of example, the results of two experiments are documented in the figures. By incubation of human dermal fibroblasts with lipopolysaccharides (LPS), the formation of the pro-inflammatory prostaglandin E2 was induced in the cells, and a specific ELISA was used to determine the concentration in the cell culture supernatant, following incubation for 24 hours with LPS and increasing concentrations of the substances according to the invention. […] In the next experiment, the release of interleukin 1β (IL-1β) from blood leukocytes following stimulation by LPS and simultaneous incubation (for 24 hours) with the substances according to the invention was measured. […] The anti-inflammatory activity level of the alkylamidothiazoles is thus that of recognized pharmacological standards, although higher concentrations of the substances according to the invention do have to be used.

blood leukocytes = assay: release of interleukin 1β from blood leukocytes following stimulation by LPS; details: FIG. 3
Description: as §1

CC(C)C(=O)Nc1nc(-c2ccc(O)cc2O)cs1 [N-(4-(2,4-dihydroxyphenyl)thiazol-2-yl)isobutyramide]
inhibition of the TNF-alpha-induced activation of NFκB (NFκB): prevent the TNF-alpha-induced activation of NFκB
release of PGE2 (human dermal fibroblasts): very significantly reduces the release of PGE2 to a level which is comparable to the pharmacological standard diclofenac
release of interleukin 1β (IL-1β) (blood leukocytes; LPS stimulation and simultaneous incubation for 24 hours): very good anti-inflammatory effectiveness
release of interleukin 1β (IL-1β), effectiveness relative to dexamethasone (blood leukocytes; concentration of 16.67 μM, LPS, 24 hours): an effectiveness as for 500 ng of dexamethasone
